Test results from ChEMBL document CHEMBL3994618, “The long story of camptothecin: From traditional medicine to drugs” (Bioorg Med Chem Lett, 2017).

Assay: Drug excretion in human urine upto 24 hrs
Format: ADME
Conditions: read-out: Drug excretion

Compound: CC[C@@]1(O)C(=O)OCc2c1cc1n(c2=O)Cc2cc3c(CN(C)C)c(O)ccc3nc2-1 [TOPOTECAN]
- dose excreted at 24 h: 40%
